Reference: patent US20220125051A1, “PRE-HARVEST DESICCATION METHOD” (SYNGENTA CROP PROTECTION AG, priority 2019, published 2022)
Where two headings read alike, the source gives them in different places.

How the values were obtained:
Assay in all cases: Post-emergence efficacy, Method A
Format in all cases: in vivo
[1] = system: Eleusine indica (ELEIN); details: evaluated after 13 days; for pest or weed control at 500 g/ha: Eleusine indica, post-emergence, 312 h
Method in brief: (§1)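 Plants grown 14 days in glasshouse (24/16 °C, 14 h light, 65% humidity) were sprayed with compound formulated in IF50. The spray was diluted in 0.25% or 1% Empicol ESC70 plus 1% ammonium sulphate. Damage was scored 13 days later on a 0-100 scale, where 100 is total damage.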

[2] = system: Amaranthus palmeri (AMAPA); details: evaluated after 13 days; for pest or weed control at 500 g/ha: Amaranthus palmeri, post-emergence, 312 h
Method in brief: as §1

[3] = system: Euphorbia heterophylla (EPHHL); details: evaluated after 13 days; for pest or weed control at 500 g/ha: Euphorbia heterophylla, post-emergence, 312 h
Method in brief: as §1

[4] = system: Digitaria sanguinalis (DIGSA); details: evaluated after 13 days; for pest or weed control at 500 g/ha: Digitaria sanguinalis, post-emergence, 312 h
Method in brief: as §1

[5] = system: Echinochloa crus-galli (ECHCG); details: evaluated after 13 days; for pest or weed control at 500 g/ha: Echinochloa crus-galli, post-emergence, 312 h
Method in brief: as §1

[6] = system: Setaria faberi (SETFA); details: evaluated after 13 days; for pest or weed control at 500 g/ha: Setaria faberi, post-emergence, 312 h
Method in brief: as §1

[7] = system: Ipomoea hederacea (IPOHE); details: evaluated after 13 days; for pest or weed control at 500 g/ha: Ipomoea hederacea, post-emergence, 312 h
Method in brief: as §1

[8] = system: Lolium perenne (LOLPE); details: evaluated after 13 days; for pest or weed control at 500 g/ha: Lolium perenne, post-emergence, 312 h
Method in brief: as §1

[9] = system: Chenopodium album (CHEAL); details: evaluated after 13 days; for pest or weed control at 500 g/ha: Chenopodium album, post-emergence, 312 h
Method in brief: as §1

[10] = Application Rate 500 g/Ha, Method A, read-out: Control of weed species after post-emergence application, ELEIN (100=total damage to plant; 0=no damage to plant)
[11] = Application Rate 500 g/Ha, Method A, read-out: Control of weed species after post-emergence application, AMAPA (100=total damage to plant; 0=no damage to plant)
[12] = Application Rate 500 g/Ha, Method A, read-out: Control of weed species after post-emergence application, EPHHL (100=total damage to plant; 0=no damage to plant)
[13] = Application Rate 500 g/Ha, Method A, read-out: Control of weed species after post-emergence application, DIGSA (100=total damage to plant; 0=no damage to plant)
[14] = Application Rate 500 g/Ha, Method A, read-out: Control of weed species after post-emergence application, ECHCG (100=total damage to plant; 0=no damage to plant)
[15] = Application Rate 500 g/Ha, Method A, read-out: Control of weed species after post-emergence application, SETFA (100=total damage to plant; 0=no damage to plant)
[16] = Application Rate 500 g/Ha, Method A, read-out: Control of weed species after post-emergence application, IPOHE (100=total damage to plant; 0=no damage to plant)
[17] = Application Rate 500 g/Ha, Method A, read-out: Control of weed species after post-emergence application, LOLPE (100=total damage to plant; 0=no damage to plant)
[18] = Application Rate 500 g/Ha, Method A, read-out: Control of weed species after post-emergence application, CHEAL (100=total damage to plant; 0=no damage to plant)
[19] = Application rate 500 g/Ha, 100=total damage to plant, 0=no damage to plant, read-out: Control of weed species after post-emergence application, ELEIN
[20] = Application rate 500 g/Ha, 100=total damage to plant, 0=no damage to plant, read-out: Control of weed species after post-emergence application, AMAPA
[21] = Application rate 500 g/Ha, 100=total damage to plant, 0=no damage to plant, read-out: Control of weed species after post-emergence application, EPHHL
[22] = Application rate 500 g/Ha, 100=total damage to plant, 0=no damage to plant, read-out: Control of weed species after post-emergence application, DIGSA
[23] = Application rate 500 g/Ha, 100=total damage to plant, 0=no damage to plant, read-out: Control of weed species after post-emergence application, ECHCG
[24] = Application rate 500 g/Ha, 100=total damage to plant, 0=no damage to plant, read-out: Control of weed species after post-emergence application, SETFA
[25] = Application rate 500 g/Ha, 100=total damage to plant, 0=no damage to plant, read-out: Control of weed species after post-emergence application, IPOHE
[26] = Application rate 500 g/Ha, 100=total damage to plant, 0=no damage to plant, read-out: Control of weed species after post-emergence application, LOLPE
[27] = Application rate 500 g/Ha, 100=total damage to plant, 0=no damage to plant, read-out: Control of weed species after post-emergence application, CHEAL
[28] = Application rate 500 g/Ha, 100=total damage to plant, 0=no damage to plant

Row | SMILES | pest or weed control at 500 g/ha [1, 10] | pest or weed control at 500 g/ha [2, 11] | pest or weed control at 500 g/ha [3, 12] | pest or weed control at 500 g/ha [4, 13] | pest or weed control at 500 g/ha [5, 14] | pest or weed control at 500 g/ha [6, 15] | pest or weed control at 500 g/ha [7, 16] | pest or weed control at 500 g/ha [8, 17] | pest or weed control at 500 g/ha [9, 18] | pest or weed control at 500 g/ha [1, 19] | pest or weed control at 500 g/ha [2, 20] | pest or weed control at 500 g/ha [3, 21] | pest or weed control at 500 g/ha [4, 22] | pest or weed control at 500 g/ha [5, 23] | pest or weed control at 500 g/ha [6, 24] | pest or weed control at 500 g/ha [7, 25] | pest or weed control at 500 g/ha [8, 26] | pest or weed control at 500 g/ha [9, 27] | other results
1 | Nc1nccc(-c2cc[n+](CCC(=O)O)nc2)n1 [Compound A160] | 80% | 100% | 90% | 70% | 70% | 90% | 70% | 70% | 100% | – | – | – | – | – | – | – | – | – | –
2 | Cc1n[n+](CCC(=O)O)ccc1-c1ccccn1 [Compound A145] | – | – | – | – | – | – | – | – | – | 0% | 10% | 10% | 10% | 0% | 0% | 10% | 0% | 10% | –
3 | O=P(O)(O)CC[n+]1ccc(-c2ncccn2)cn1 [Compound A198] | 80% | 100% | 100% | 80% | 80% | 90% | 50% | 50% | 100% | – | – | – | – | – | – | – | – | – | –
4 | Cc1cnc(-c2cc[n+](CCS(=O)(=O)[O-])nc2)nc1C [Compound A97] | – | – | – | – | – | – | – | – | – | 90% | 90% | 70% | 90% | 90% | 90% | 30% | 70% | 20% | –
5 | Cc1cncc(-c2cc[n+](CCS(=O)(=O)[O-])nc2)n1 [Compound A83] | – | – | – | – | – | – | – | – | – | 100% | 90% | 90% | 100% | 50% | 90% | 40% | 70% | 80% | –
6 | O=S(=O)([O-])CC[n+]1ccc(-c2ncc(F)cc2F)cn1 [Compound A70] | – | – | – | – | – | – | – | – | – | 20% | 90% | 50% | 30% | 30% | 30% | 20% | 20% | 70% | –
7 | CC(C(=O)OC(C)(C)C)[n+]1ccc(-c2ncccn2)cn1 (stereo not drawn) [Compound A193] | 30% | 70% | 60% | 30% | 10% | 10% | 30% | 10% | 60% | – | – | – | – | – | – | – | – | – | –
8 | Cc1cnc(-c2cc[n+](CCS(=O)(=O)[O-])nc2)c(F)c1 [Compound A135] | – | – | – | – | – | – | – | – | – | 70% | 60% | 50% | 30% | 50% | 50% | 30% | 60% | 20% | –
9 | O=S(=O)([O-])CC[n+]1ccc(-c2ncc(C(F)(F)F)cc2Cl)cn1 [Compound A175] | 40% | 30% | 30% | 40% | 30% | 30% | 20% | 10% | 60% | – | – | – | – | – | – | – | – | – | –
10 | Cc1cccnc1-c1cc[n+](CCC(=O)[O-])nc1 [Compound A65] | – | – | – | – | – | – | – | – | – | 40% | 40% | 20% | 30% | 30% | 40% | 10% | 10% | 10% | –
11 | O=S(=O)([O-])CC[n+]1ccc(-c2ccc(C(F)(F)F)cn2)cn1 [Compound A174] | 60% | 100% | 60% | 50% | 50% | 60% | 50% | 60% | 40% | – | – | – | – | – | – | – | – | – | –
12 | O=S(=O)([O-])CCC[n+]1ccc(-c2cnc(Cl)cn2)cn1 [Compound A79] | – | – | – | – | – | – | – | – | – | 20% | 10% | 10% | 20% | 10% | 10% | 0% | 0% | 30% | –
13 | O=C(O)c1ccnc(-c2cc[n+](CCCS(=O)(=O)[O-])nc2)n1 [Compound A146] | – | – | – | – | – | – | – | – | – | – | – | – | – | – | – | – | – | – | Control of weed species after post-emergence application, ELEIN [1, 28]: 80; Control of weed species after post-emergence application, AMAPA [2, 28]: 90; Control of weed species after post-emergence application, EPHHL [3, 28]: 50; Control of weed species after post-emergence application, DIGSA [4, 28]: 80; Control of weed species after post-emergence application, ECHCG [5, 28]: 90; Control of weed species after post-emergence application, SETFA [6, 28]: 100; Control of weed species after post-emergence application, IPOHE [7, 28]: 30; Control of weed species after post-emergence application, LOLPE [8, 28]: 50; Control of weed species after post-emergence application, CHEAL [9, 28]: 40
14 | COc1ccnc(-c2cc[n+](CCC(=O)[O-])nc2)n1 [Compound A101] | – | – | – | – | – | – | – | – | – | 40% | 80% | 80% | 60% | 60% | 80% | 10% | 70% | 70% | –
15 | Nc1nccc(-c2cc[n+](CCS(=O)(=O)[O-])nc2)n1 [Compound A158] | 50% | 100% | 80% | 30% | 20% | 40% | 30% | 30% | 80% | – | – | – | – | – | – | – | – | – | –
